Test results reported in US12036215B2, “Antitumor agent and method for tumor therapy” (TAIHO PHARMACEUTICAL CO., LTD., priority 2018, dated 2024).

How the values were obtained:
tumor = conditions: rats, 24 hours later MK-5108 orally twice per day for 2 days; cited from earlier work
[1] = tested on: small-cell lung cancer (SCLC); conditions: paclitaxel once per week; MLN8237 twice per day for 3 days, 4 days off; cited from earlier work
[2] = Phase 1 clinical dose escalation trial with paclitaxel: safety, dose-limiting toxicity; format: in vivo, human
Procedure: (§1) Paclitaxel and compound I in the form of hydrochloride were administered to cancer patients and evaluated for safety and efficacy. This study was conducted targeting solid cancer patients for whom a standard treatment is not effective, or a treatment is not present. Cancers found to affect the patients included the carcinoma shown in FIG. 3 (urothelial cancer, adrenal cancer, pancreatic cancer, colon cancer, cervical cancer, bile duct cancer, hepatocellular carcinoma, prostate cancer, head and neck cancer, ovarian cancer, gallbladder cancer, non-small cell lung cancer, parotid gland cancer, breast cancer, and fallopian tube cancer). This study also corresponds to a phase 1 clinical dose escalation trial for mainly evaluating safety and determining a recommended dose (RD), that can be administered safely without a concerned side effect in a phase 1 clinical expansion cohort test to be performed on a carcinoma basis.
(§2) A weekly administration regimen was adopted to paclitaxel, in which paclitaxel was administered once per week for 3 weeks, followed by cessation of the drug for 1 week. This administration method is a standard paclitaxel administration regimen and is widely used in clinical practice. On the other hand, the compound I was administered twice per day for 2 or 3 or 4 days from the same day as paclitaxel administration or 1 day after paclitaxel administration; this regimen was performed for 3 weeks together with the weekly paclitaxel administration; and week 4 was set to cessation of the compound I, in accordance with the cessation of paclitaxel. Each administration schedule (dose level) was evaluated from results of administration to 2 to 7 patients.

Aurora A = target: T1, Aurora A (Homo sapiens, UniProt O14965); conditions: cited from earlier work
T1 sequence (O14965 1-403): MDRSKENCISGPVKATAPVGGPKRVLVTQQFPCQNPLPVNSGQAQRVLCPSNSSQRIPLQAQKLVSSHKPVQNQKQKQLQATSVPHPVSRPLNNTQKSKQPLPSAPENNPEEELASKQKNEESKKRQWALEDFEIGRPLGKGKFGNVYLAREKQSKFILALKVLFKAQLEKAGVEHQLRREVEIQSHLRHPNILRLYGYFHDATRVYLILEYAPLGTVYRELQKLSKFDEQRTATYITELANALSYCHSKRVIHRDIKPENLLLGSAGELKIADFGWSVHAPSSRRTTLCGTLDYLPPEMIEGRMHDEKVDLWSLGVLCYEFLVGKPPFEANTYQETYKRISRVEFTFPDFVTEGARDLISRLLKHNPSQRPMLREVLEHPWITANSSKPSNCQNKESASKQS

solid cancer = test: Phase 1 clinical dose escalation trial with paclitaxel: tumor reduction effect (RECIST); format: in vivo, human; conditions: for cases in which a tumor reduction effect was observed: equal dose per day
Procedure: as §1
In addition to the evaluation of safety, a therapeutic effect on tumor was also evaluated, if possible. The therapeutic effect on tumor was determined as a tumor reduction effect by comprehensive evaluation of target lesions (lesions equal to or larger than a measurable size according to a slice width by CT, etc.) and non-target lesions (all lesions other than the target lesions) with reference to the RECIST evaluation method (Journal of the National Cancer Institute, 2000, Vol 92, No. 3, 205-216J). The dose of the compound I is a weight based on free form.
In this study, PR (partial response) refers to 30% or more decrease in the sum of the major axis of target lesions, compared to that before administration. PD (progressive disease) refers to 20% or more relative increase in the sum of the major axis of target lesions, compared to the smallest sum of the major axis recorded after the start of the study, 5 mm or more absolute increase in the sum of the major axis, or apparent exacerbation of existing non-target lesions or a new lesion. SD (stable disease) refers to insufficient tumor reduction to qualify for PR and insufficient increase to qualify for PD, without progression and exacerbation of tumor, compared to the smallest sum of the major axis recorded after the start of the study.
as §2

[3] = in vivo; cited from earlier work
[4] = tested on: Human-derived uterus cancer cell line HeLa-luc; test: Schedule study of combined use of compound I and paclitaxel in HeLa-luc grafted nude rats; format: in vivo; conditions: group 1: paclitaxel 10 mg/kg i.v. on day 1 alone; 5 rats
Excerpt: Human-derived uterus cancer cell line HeLa-luc (PerkinElmer, Inc.) cells transfected with luciferase gene were subcutaneously grafted at 1×10^7 cells to the right abdomens of nude rats (lineage: F344/NJcl-rnu/rnu, female, distributor: CLEA Japan, Inc.). When the volume of the grafted tumor reached approximately 200 mm^3, the rats were divided into groups each consisting of 5 rats according to stratified randomization such that each group had almost the same tumor volume.
To group 1, paclitaxel (10 mg/kg) alone was intravenously administered on day 1. To groups 2 to 5, paclitaxel was administered and, on the next day, the hydrochloride of the compound I (30 mg/kg, based on free form) obtained in Reference Example 1 was orally administered twice per day for 1 day, 2 days, 3 days or 4 days (Sequential treatment; see FIG. 1). […]
The presence or absence of a therapeutic effect was determined by measuring the major axis and minor axis of tumor with time and calculating a tumor volume (TV), relative tumor volume (RTV) and T/C (%) value (average relative tumor volume ratio of the treatment group to the control group) on day 10 after initiation of administration, according to the following formulas. […]

In the case of `O=C(O)[C@]1(Cc2cccc(Nc3nccs3)n2)CC[C@@H](Oc2cccc(Cl)c2F)CC1` [MK-5108], the “effect on side effect of docetaxel” value (tumor) is given as “without exacerbating the side effect of docetaxel” and the “effect on tumor reduction effect of docetaxel” value (tumor) is given as “tumor reduction effect of docetaxel is enhanced”.

For `COc1cc(Nc2ncc3c(n2)-c2ccc(Cl)cc2C(c2c(F)cccc2OC)=NC3)ccc1C(=O)O` [alisertib], the adverse events [1] is given as “serious adverse events such as neutropenia was found” and the “efficacy in combination with paclitaxel” value [1] is given as “effective for small-cell lung cancer”.

In the case of `Cc1cc(Nc2nc(CC3(C(=O)O)CCN(C(=O)c4cccc(Cl)c4Cl)CC3)ccc2F)n[nH]1` [compound I, 1-(2,3-dichlorobenzoyl)-4-[5-fluoro-6-(5-methyl-1H-pyrazol-3-ylamino)pyridin-2-yl]methyl-4-piperidinecarboxylic acid], the “patients with dose-limiting toxicity (DLT)” value ([2]; DL1: paclitaxel 90 mg/m^2/day weekly, compound I 25 mg/dose twice per day for 4 days from same day as paclitaxel, 3 weeks) is reported as “two out of three”, the “tolerability determination of the dose level” value (“tolerability determination” below) ([2]; DL1: paclitaxel 90 mg/m^2/day, compound I 25 mg/dose twice per day for 4 days) is reported as “exceed the maximum tolerable dose” and the “tolerability determination” value ([2]; DL2: paclitaxel 70 mg/m^2/day, compound I for 2 days) is reported as “tolerable”. For the same compound, the “patients with dose-limiting toxicity (DLT)” value ([2]; DL2: paclitaxel 70 mg/m^2/day, compound I for 2 days from 1 day after paclitaxel) was “not observed in any of three cases”, the “tolerability determination” value ([2]; DL6: paclitaxel 80 mg/m^2/day, compound I 75 mg per dose twice per day for 3 days) was “most suitable as the maximally tolerated dose” and the “patients with grade 3 or higher dose-limiting toxicity” value ([2]; DL6: paclitaxel 80 mg/m^2/day, compound I 75 mg per dose twice per day for 3 days from day following paclitaxel) was “not observed in any of seven cases”. The “tolerability determination” value ([2]; DL7: paclitaxel 80 mg/m^2/day, compound I 100 mg per dose twice per day for 3 days) was “exceed the maximum tolerable dose”, the “patients with dose-limiting toxicity (DLT)” value ([2]; DL7: paclitaxel 80 mg/m^2/day, compound I 100 mg per dose twice per day for 3 days from day following paclitaxel) was “two out of three” and the tolerability ([2]; compound I 2 consecutive days, 75 mg per dose, total 300 mg per week, with paclitaxel) was “tolerable without the dose-limiting toxicity”. The “Aurora A selective inhibitory activity” value (Aurora A) was “excellent”, the “patients in which a tumor reduction effect was observed” value (solid cancer; 2 on 5 off schedule, 6 out of 12 patients, with paclitaxel) was 50% and the “cases that had PR” value (solid cancer; 2 on 5 off schedule, one out of 12 cases, with paclitaxel) was 8.3%. The “cases that manifested PR” value (solid cancer; 3 on 4 off schedule (dose levels 6 and 7), 3 out of 8 cases, with paclitaxel) was 38%, the “patients in which a tumor reduction effect was observed” value (solid cancer; 3 on 4 off schedule, 7 out of 8 patients, with paclitaxel) was 88% and the “number of patients with PR (partial response)” value (solid cancer; all dose levels, 22 evaluable cases, combination with paclitaxel) was 5. The “cases in which a tumor reduction effect was observed” value (solid cancer; 2 on 5 off (dose level 5), 1 out of 3 cases, with paclitaxel) was 33%, the “cases in which a tumor reduction effect was observed” value (solid cancer; 3 on 4 off (dose level 6), 4 out of 5 cases, with paclitaxel) was 80% and the oral absorbability [3] was “excellent in oral absorbability”.

In the case of `CC(=O)O[C@H]1C(=O)[C@@]2(C)[C@H]([C@H](OC(=O)c3ccccc3)[C@]3(O)C[C@H](OC(=O)[C@H](O)[C@@H](NC(=O)c4ccccc4)c4ccccc4)C(C)=C1C3(C)C)[C@]1(OC(C)=O)CO[C@@H]1C[C@@H]2O` [paclitaxel], the “number of CR (complete remission) cases” value [4] is reported as “no CR cases were observed”.
